Laboratory results published in patent EP4523686A1, “A SIGMA-1 RECEPTOR POSITIVE MODULATOR FOR ITS USE IN THE PREVENTION AND THE TREATMENT OF A PATHOLOGY” (priority 2023, dated 2025).

Tests used:
SIG-1R = target: T1, SIG-1R (Homo sapiens, UniProt Q99720); assay: In vitro binding to SIG-1R ([3H](+)-pentazocine, Jurkat cell membranes, CEREP); details: for inhibition of the binding / displacement of SIG-1R radioligand (in words): no concentration stated
T1 construct: incubated with 15 nM of [^3H](+)-pentazocine in membranes preparations from Jurkat human leukemic T cells; host or cells: Jurkat human leukemic T cells (membrane preparation)
Method: The assay was performed by CEREP (Celle l'Evescault, France) (study 100062023). SIG-1R binding was performed according to Ganapathy et al. (1999). Increasing drug concentrations (100 nM to 30 µM) were incubated with 15 nM of [^3H](+)-pentazocine in membranes preparations from Jurkat human leukemic T cells. Samples were incubated during 120 min at 37°C and nonspecific binding level was determined using 10 µM of haloperidol. S2R binding was performed according to Ganapathy et al. (1999). Increasing drug concentrations (100 nM to 30 µM) were incubated with 25 nM of [^3H]ditolyl-guanidine in membranes preparations from Jurkat human leukemic T cells. Samples were incubated during 60 min at room temperature and nonspecific binding level was determined using 10 µM of haloperidol. Assays were performed in duplicates and results were expressed as % of specific binding level.

Wfs1^ΔExon8 mice [1] = assay: Spontaneous alternation in the Y-maze, Wolfram syndrome mouse model; type: in vivo; details: 1 mg/Kg IP, 20 min before the Y-maze session
Method: (§1) The Y-maze is made of grey polyvinylchloride. Each arm is 40 cm long, 13 cm high, 3 cm wide at the bottom, 10 cm wide at the top, and converging at an equal angle. Each mouse was placed at the end of one arm and allowed to move freely through the maze during an 8 min session. The series of arm entries, including possible returns into the same arm, were checked visually. An alternation is defined as entries into all three arms on consecutive occasions. The number of maximum alternations is therefore the total number of arm entries minus two and the percentage of alternation was calculated as (actual alternations / maximum alternations) × 100 (Maurice et al., 1996; Meunier et al., 2006, 2013). Exclusion criteria are locomotion < 10 or percentage of alternation < 25% or > 90%. Animals showing these readouts are excluded from the calculations. Attrition is routinely < 5% in this test.

[2] = test system: Dizocilpine-induced learning impairments in mice; assay: Spontaneous alternation in the Y-maze, Dizocilpine-induced learning impairments; type: in vivo
Method: as §1
Due to the chaperone nature of SIG-1R, a SIG-1R positive modulator behaves as an agonist in vivo, particularly on learning and memory abilities in mice (Maurice et al., 2019; Vavers et al., 2019). Convolamine was tested on Dizocilpine-induced learning impairments, a well-characterized SIG-1R-mediated response in mice (Maurice et al., 1994, 2001). The NMDA receptor noncompetitive antagonist Dizocilpine (0.15 mg/kg IP) prevented spontaneous alternation behavior (Fig. 4A) and increased mobility (Fig. 4B) in the Y-maze. […] Co-treatment with the SIG-1R antagonist NE-100 at 1 mg/kg IP, blocked the attenuating effect of Convolamine (Fig. 4C), thus confirming the SIG-1R-mediated effect.

Wfs1^ΔExon8 mice [3] = assay: Active avoidance in the rectangular water-maze, Wolfram syndrome mouse model; type: in vivo
Method: (§2) Non-spatial long-term memory was also examined using the successive training, place-learning procedure in the rectangular water-maze (Maurice et al., 1995, 2018). The apparatus is a black Plexiglas rectangular pool (30 × 60 × 36 cm high), filled with water at a high of 25 cm. The water temperature was maintained at 23 ± 1°C. A transparent Plexiglas platform (5 × 8.5 × 0.5 cm) was fixed in the southeast corner of the pool, 1 cm below the water surface. On acquisition days 1 and 2, each mouse was placed at the middle of the west side of the pool, facing the wall, and the latency to find the platform was recorded up to 60 s. The mouse was allowed to remain on it for 20 s, and then removed from the pool into its home cage. […] Each animal was run in this manner for a total of 5 trials on day 1, and 3 trials on day 2. […] A short-term memory (STM) index was defined as the mean difference in swimming duration between trial n and trial n-1 for trials 2 to 5 and 7 to 8. The STM index was analysed vs. zero level (= no improvement). On day 4, 48 h after the last training session, animals were tested for retention. The platform was removed. Each mouse was again placed at the starting point and observed for 60 s. The latency to reach the original platform location and the time spent on the platform location was recorded.

[4] = test system: Aβ25-35-induced learning impairments in mice; assay: Active avoidance in the rectangular water-maze, Aβ25-35 model of Alzheimer's disease; type: in vivo
Method: Amyloid-β[25-35] peptide (Aβ25-35) was from Eurogentec (Angers, France). It was solubilized in distilled water at 3 mg/ml and stored at -20°C until use. Before injection, the peptide was incubated at 37°C for 4 days, allowing oligomerization. Control injection was performed with vehicle solution (distilled water), and intracerebroventricularly (ICV) injections were done as described previously (Maurice et al., 1996, 2019).
as §2
SIG-1R acting drugs are potent neuroprotective drugs in several neurodegenerative disease indications. Moreover, Blarcamesine, the drug presently tested in a clinical phase 3 assay (NCT04314934) was identified in the pharmacological model of AD induced in mice by ICV administration of oligomerized Aβ25-35 peptide (Villard et al., 2011). […]

[5] = probe test without platform, no drug injection

T1 sequence (Q99720 whole entry): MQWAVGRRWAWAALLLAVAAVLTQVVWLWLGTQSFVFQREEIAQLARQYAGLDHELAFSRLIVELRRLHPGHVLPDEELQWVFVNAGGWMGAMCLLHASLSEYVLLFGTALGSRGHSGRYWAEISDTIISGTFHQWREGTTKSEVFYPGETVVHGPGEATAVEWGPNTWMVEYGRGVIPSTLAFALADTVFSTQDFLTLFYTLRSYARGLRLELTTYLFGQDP

SMILES: COc1ccc(C(=O)OC2CC3CCC(C2)N3C)cc1OC (stereo not shown) [Convolamine, (8-methyl-8-azabicyclo[3.2.1]octan-3-yl) 3,4-dimethoxybenzoate]
- IC50 (SIG-1R): > 30 µM
- inhibition of [3H](+)-pentazocine binding to SIG-1R (in words) (SIG-1R; at concentrations < 10 µM): failed to inhibit
- inhibition of the binding / displacement of SIG-1R radioligand (in words) (SIG-1R): did not inhibit
- inhibition of the binding / displacement of SIG-1R radioligand (in words) (SIG-1R; listed as convolamine): does not displace
- alteration of spontaneous alternation (in words) (Wfs1^ΔExon8 mice [1]): significantly attenuated
- Dizocilpine-induced alternation deficit (in words) ([2]; 0.1-1 mg/kg IP range, 10 min before Dizocilpine […] IP): attenuated, dose-dependently and significantly but in a bell-shaped manner
- attenuating effect of Convolamine on alternation deficit under NE-100 co-treatment (in words) ([2]; Convolamine 1 mg/Kg IP with NE-100 at 1 mg/kg IP): blocked
- mild deficit of STM index (in words) (Wfs1^ΔExon8 mice [3]; IP 20 min before training sessions): not observed
- latency to reach the platform location in the probe test (in words) (Wfs1^ΔExon8 mice [3]; [5]): attenuated these differences
- number of platform location crossings in the probe test (in words) (Wfs1^ΔExon8 mice [3]; [5]): attenuated these differences
- STM (short-term memory index) in Aβ25-35-treated mice (in words) ([4]; at 1 mg/kg): significantly increased
- Aβ25-35-induced decrease in number of platform location crossings (in words) ([4]; at 1 mg/kg IP): significantly attenuated
- Aβ25-35-induced increase in latency in the retention session (in words) ([4]; at 1 mg/kg IP): significantly attenuated
